Reference: US12030908B2, “Antimicrobial compounds, compositions, and uses thereof” (Lakewood Amedex, Inc., priority 2017, dated 2024)
Values joined by “and” are separate entries in the source; they are usually repeats but may differ in a detail not shown here. Identical values can stand only once.

Assays:
[1] = test system: Aspergillus fumigatus (ATCC13073); assay: Neutropenic lung infection model in mice, lung fungal burden and mortality (Example 24); type: in vivo, BALB/c mice
Method: Neutropenic, BALB/c female mice, all of which were from 6 to 8 weeks of age, were infected intranasally with Aspergillus fumigatus (ATCC13073) at inoculum strengths of ˜1×10^6 conidia/animal (Part A) and ˜1×10^4 conidia/animal (Part B). Twenty four hours after infection, animals were treated by aerosol route with vehicle and Nu-8 (10% solution) for one, two, three, and five days. Two hours following treatment, groups of mice were terminated on days 1, 3, and 5, and lungs were collected to determine fungal load. A similar procedure was followed at inoculum strengths of ˜1×10^3 conidia/animal (Part C) and ˜1×10^2 conidia/animal (Part D).
This experiment was performed in four parts: Part A (infection with 1×10^6 conidia/animal), Part B (infection with 1×10^4 conidia/animal), Part C (infection with 1×10^3 conidia/animal), and Part D (infection with 1×10^2 conidia/animal). The mice were separated into cohorts in accordance with Table 13 (Part A), Table 14 (Part B), Table 15 (Part C), and Table 16 (Part D).
On day −4 (four days before the date of infection), each mouse was dosed with a single intraperitoneal injection of cyclophosphamide equivalent to 150 mg/kg and returned to its cage. On day −1 (one day before infection) each mouse received a dose equivalent to 100 mg/kg of cyclophosphamide. Neutropenia was confirmed with differential leukocyte count on day 0.
One week before infection, an aliquot from the glycerol stocks of Aspergillus fumigatus (ATCC13073) was taken and grown on Potato Dextrose Agar (PDA) plates for seven days in an incubator at 25° C. After seven days, conidia were collected by scraping the colonies from the PDA plate with a sterile loop and washing the surface of the plate with sterile distilled water. The conidial suspension was collected into a sterile tube and filtered through 10 layers of sterile cheese (muslin) cloth/Whatman filter paper to remove hyphal fragments from the spore suspension. The optical density of the filtered suspension was adjusted to an equivalent of ˜1×10^8 conidia/ml. The inoculum was serially diluted in normal saline and viability was checked by hemocytometer.
Animals were divided into different groups as specified in the experimental design (Tables 13-16). Infections were conducted in a biological safety cabinet, with appropriate personnel protection. Mice were placed into an induction chamber and anesthesia was induced by exposing the animals to 3%-5% Isoflurane in an oxygen flow set at approximately 1 liter per minute (LPM). Once the animals were in a sufficiently deep plane of anesthesia, they were removed and infected. Infection was done by injection of 0.02 ml (containing ˜1×10^8 CFU/ml for Part A, ˜1×10^6 CFU/ml for Part B, ˜1×10^5 CFU/ml for Part C, and ˜1×10^4 CFU/ml for Part D). 10 μl was instilled into each nostril of the anesthetized animal (˜2×10^6 CFU/animal for Part A, ˜2×10^4 CFU/animal for Part B, ˜2×10^3 CFU/animal for Part C, ˜2×10^2 CFU/animal for Part D) using a 10 μl pipette. A gentle shaking/mixing of inoculum between two animals was followed for uniform distribution.
The vehicle used for the test compound was saline (0.9% NaCl adjusted to pH 3.5 with citric acid). To make 10% solution, 15 g Nu-8 was weighed and dissolved in 145 ml of the saline and the pH of the solution was adjusted to 3.5 with citric acid (0.1 M) in a final volume of 150 ml.
Treatment began twenty four hours after infection. Test formulations were administered by aerosol route with nose only apparatus connected to a nebulizer (Omron Ne-C28 Compressor Nebulizer with a volume capacity of 15 ml, Particle size 3 μm, Nebulization rate: 0.5 ml/min and Aerosol output rate: 0.09 ml/min). Test formulations were placed into the nebulizer fluid cup; animals were placed in the nose-only apparatus, and the entire system was placed inside a Class II Biosafety Cabinet. […]

[2] = test system: Helicobacter pylori SS1 (CagA+, VacA+); assay: Helicobacter pylori stomach infection model in mice, oral treatment; type: in vivo, C57/BL6 mice
Excerpt: The mouse strain used in this study is C57/BL6 ranging from 5-6 weeks in age and 18-22 grams in weight. Mice are housed five to a cage with free access to food and water in accordance with NIH guidelines.
A bacterial strain of Helicobacter pylori SS1 (CagA+, VacA+) is adapted for the mouse model from a human clinical isolate and validated in this infection model.
At 6 days prior to infection, a frozen stock is streaked onto one to two Columbia 5% sheep blood agar plates, and the plates are microaerophilically incubated for 72 hours at 37° C. After 72 hours, the plate growth is subcultured onto five Columbia 5% sheep blood agar plates and is incubated as before. After another 72 hours of incubation, the plates are removed, and the plate growth is suspended in sterile 0.9% saline to an OD of 1.5-2.0 at 530 nm. This OD is approximately equal to 1.0e+09 CFU/mL, which is used to orally infect the mice on all 3 infection days. To infect mice, the mice are orally dosed 0.25 mL of the 1.0e+09 CFU/mL via a 20-22 G gavage needle. Mice need to be fasted only before the first infection.
At 1 week post-infection, mice are treated with Nu-8. Multiple dose antibiotic therapies are administered orally at 0.2 mL/dose. Antibiotics are administered 2 times per day and continued for 7 days. The control group is administered the vehicle alone.
Food is removed from cages 18 hours prior to euthanizing animals and each cage is clearly labeled that the animals are being experimentally fasted. Mice are euthanized (CO2 & cervical dislocation). […] The excised stomach is placed into a sterile petri dish and the luminal contents are rinsed away with sterile 1×PBS. Each rinsed stomach is placed into a 14-mL Falcon tube containing 2 mL of 1×PBS and stored on ice. Each stomach is homogenized, 10-fold serial diluted in 1×PBS, spot plated onto Columbia agar with 3.5% laked horse blood±the DENT selective antibiotic supplement, and microaerophilically incubated for 5 days at 37° C. Then, colonies are counted.
Nu-8 is administered at various doses (mg/kg), orally, twice-a-day for 7 days. The formulations, concentration and dose volumes for treatment is established prior to dosing. The positive control group consists of a triple therapy regimen (omeprazole, amoxicillin, and clarithromycin). Negative control used dosing solution without drugs.

CCCCOP(=O)(O)OC[C@H]1O[C@@H](n2ccc(N)nc2=O)C[C@@H]1OP(=O)(O)OCCCC [Nu-8, sodium ((2R,3S,5R)-5-(4-amino-2-oxopyrimidin-1(2H)-yl)-3-((butoxyoxidophosphor-yl)oxy)tetrahydrofuran-2-yl)methyl butyl phosphate]
Log10 CFU/g lung ([1]; Part A, 1×10^6 conidia/animal, 10% aerosol single dose, individual mice): 6.16 Log10 CFU/g lung and 5.71 Log10 CFU/g lung and 4.51 Log10 CFU/g lung and 5.41 Log10 CFU/g lung and 5.14 Log10 CFU/g lung and 5.76 Log10 CFU/g lung | % Mortality ([1]; Part A, 10% aerosol, 3 doses, once daily for 3 days, day 3): 50% and 50 [day 3] % | Log10 CFU/g lung ([1]; Part A, 10% aerosol, 3 doses, once daily for 3 days, individual surviving mice): 4.96 Log10 CFU/g lung and 5.48 Log10 CFU/g lung and 3.23 Log10 CFU/g lung | Mean ± SD (Log10 CFU/g lung) ([1]; Part A, 10% aerosol, 3 doses, once daily for 3 days, n = 3): 4.56 ± 1.18 Log10 CFU/g lung | Log10 CFU/g lung ([1]; Part A, 10% aerosol, 5 doses, once daily for 5 days, individual surviving mice): 4.28 Log10 CFU/g lung and 4.06 Log10 CFU/g lung | Mean (Log10 CFU/g lung) ([1]; Part A, 10% aerosol, 5 doses, once daily for 5 days, n = 2): 4.17 (n = 2) Log10 CFU/g lung | efficacy vs day 1 control and day 3 vehicle controls ([1]; Part A, day 3 and day 5): marked efficacy | efficacy vs vehicle control ([1]; Part A, single dose (day 1), p>0.05): did not show significant efficacy | mean fungal count ([1]; Part A, treated with Nu-8 (10%) for three days, day 3): 4.56 log10 spores/g lung | mean fungal count ([1]; Part A, treatment with Nu-8 (10%), day 5): 4.17 log10 spores/g lung | Mean ± SD (Log10 spores/g lung) ([1]; Part B, 1×10^4 conidia/animal, 10% aerosol single dose (Table 20 group 3), terminated day 3): 4.41±0.29 Log10 spores/g lung | Log10 spores/g lung ([1]; Part B, 1×10^4 conidia/animal, 10% aerosol single dose, terminated day 3, individual mice): 3.99 Log10 spores/g lung and 4.72 Log10 spores/g lung and 4.51 Log10 spores/g lung and 4.83 Log10 spores/g lung and 4.23 Log10 spores/g lung and 4.45 Log10 spores/g lung and 4.14 Log10 spores/g lung and 4.34 Log10 spores/g lung | Mean ± SD (Log10 spores/g lung) ([1]; Part B, 10% aerosol, 3 doses, once daily for 3 days): 4.31±0.29 Log10 spores/g lung | Log10 spores/g lung ([1]; Part B, 10% aerosol, 3 doses, once daily for 3 days, individual mice): 4.29 Log10 spores/g lung and 4.45 Log10 spores/g lung and 3.93 Log10 spores/g lung and 4.28 Log10 spores/g lung and 4.34 Log10 spores/g lung and 4.87 Log10 spores/g lung and 4.24 Log10 spores/g lung and 4.03 Log10 spores/g lung | Mean ± SD (Log10 spores/g lung) ([1]; Part C, 1×10^3 conidia/animal, 10% aerosol, 3 doses, once daily for 3 days): 3.65±0.50 Log10 spores/g lung | Log10 spores/g lung ([1]; Part C, 1×10^3 conidia/animal, 10% aerosol, 3 doses, once daily for 3 days, individual mice): 4.30 Log10 spores/g lung and 3.67 Log10 spores/g lung and 3.46 Log10 spores/g lung and 4.05 Log10 spores/g lung and 3.54 Log10 spores/g lung and 2.85 Log10 spores/g lung | Mean ± SD (Log10 spores/g lung) ([1]; Part D, 1×10^2 conidia/animal, 10% aerosol, 5 doses, once daily for 5 days): 2.49±0.16 Log10 spores/g lung | Log10 spores/g lung ([1]; Part D, 1×10^2 conidia/animal, 10% aerosol, 5 doses, once daily for 5 days, individual mice): 2.71 Log10 spores/g lung and 2.23 Log10 spores/g lung and 2.50 Log10 spores/g lung and 2.52 Log10 spores/g lung and 2.44 Log10 spores/g lung and 2.56 Log10 spores/g lung | mean bacterial stomach titers of H. pylori SS1 (Log10) ([2]; 0.2 mg (1 mg/mL, 0.2 mL) PO bid for 7 days, +7 Days): 5.62 log10 CFU | mean bacterial stomach titers of H. pylori SS1 (Log10) ([2]; 0.2 mg (1 mg/mL, 0.2 mL) PO bid for 7 days, +14 Days): 6.2 log10 CFU | mean bacterial stomach titers of H. pylori SS1 (Log10) ([2]; 1.0 mg (5 mg/mL, 0.2 mL) PO bid for 7 days, +7 Days): 5.21 log10 CFU | mean bacterial stomach titers of H. pylori SS1 (Log10) ([2]; 1.0 mg (5 mg/mL, 0.2 mL) PO bid for 7 days, +14 Days): 5.67 log10 CFU | mean bacterial stomach titers of H. pylori SS1 (Log10) ([2]; 2 mg (10 mg/mL, 0.2 mL) PO bid for 7 days, +7 Days): 4.74 log10 CFU | mean bacterial stomach titers of H. pylori SS1 (Log10) ([2]; 2 mg (10 mg/mL, 0.2 mL) PO bid for 7 days, +14 Days): 5.81 log10 CFU
